Data as given in patent publication US9550811B2, “Peptide scaffold design” (BIONOR IMMUNO AS, priority 2010, dated 2017).

Experiments:
Assay in all cases: REVEAL binding assay
Details in all cases: score as percentage of the signal generated by the positive control peptide
[1] = tested on: HLA-A29
[2] = tested on: HLA-B14
Description: (§5) The REVEAL™ binding assay determined the ability of each candidate peptide to bind to one or more MHC class I alleles and stabilizing the MHC-peptide complex. […] Detection is based on the presence or absence of the native conformation of the MHC-peptide complex. Each peptide is given a score relative to the positive control peptide, which is a known T cell epitope.

[3] = tested on: HLA-A1
[4] = tested on: HLA-B35
[5] = tested on: HLA-B15
[6] = tested on: HLA-B40
Description: (§1) Binding properties to HLA for the ninemers listed in table 6 were tested for the following HLA-classes:
(§2) HLA-A1, HLA-A2, HLA-A3, HLA-A11, HLA-A24, HLA-A29, HLA-B7, HLA-B8, HLA-B14, HLA-B15, HLA-B27, HLA-B35, HLA-B40.
The peptides were synthesized as a Prospector PEPscreen®: Custom Peptide Library. Peptides 8-15 amino acids in length were synthesized in 0.5-2 mg quantities with high average purity. Quality control by MALDI-TOF Mass Spectrometry was carried out on 100% of samples.
The REVEAL™ binding assay determined the ability of each candidate peptide to bind to one or more MHC class I alleles and stabilizing the MHC-peptide complex. By comparing the binding to that of high and intermediate affinity T cell epitopes, the most likely immunogenic peptides in a protein sequence can be identified. Detection is based on the presence or absence of the native conformation of the MHC-peptide complex. Each peptide is given a score relative to the positive control peptide, which is a known T cell epitope. The score of the test peptide is reported quantitatively as a percentage of the signal generated by the positive control peptide, and the peptide is indicated as having a putative pass or fail result. Assay performance is confirmed by including an intermediate control peptide that is known to bind with weaker affinity to the allele under investigation.

[7] = tested on: HLA-A24
Description: as §5

[8] = tested on: HLA-B8
[9] = biological target: HLA-A3 (Homo sapiens, UniProt P04439)
Description: as §1, §2
(§3) The peptides were synthesized as a Prospector PEPscreen®: Custom Peptide Library. […] Quality control by MALDI-TOF Mass Spectrometry was carried out on 100% of samples.
(§4) The REVEAL™ binding assay determined the ability of each candidate peptide to bind to one or more MHC class I alleles and stabilizing the MHC-peptide complex. By comparing the binding to that of high and intermediate affinity T cell epitopes, the most likely immunogenic peptides in a protein sequence can be identified. Detection is based on the presence or absence of the native conformation of the MHC-peptide complex. Each peptide is given a score relative to the positive control peptide, which is a known T cell epitope.

[10] = biological target: HLA-B7 (Homo sapiens, UniProt P01889)
Description: as §1, §2, §3, §4

[11] = biological target: HLA-A2 (Homo sapiens, UniProt P04439, D140Y/D185E/D98H/E176V/E277Q/G131W/G231S/I119V/I121R/I166T/I218V/N151K/N90K/P208A/P217A/Q86G/Q94H/R138H/R169H)
Description: as §1, §2, §3, §4

[12] = biological target: HLA-A11 (Homo sapiens, UniProt P04439, A114D/F33Y/S129P)
Description: as §1, §2, §3, §4

[13] = biological target: HLA-B27 (Homo sapiens, UniProt P01889, D138H/D201E/E176V/E204Q/G107R/H137Y/K202T/N104T/N87E/Q56L/Q94K/R106L/R155S/R180L/S101D/S121N/S48T/Y140D/Y33H/Y91C)
Description: as §1, §2, §3, §4

Sequence of HLA-A3 (P04439 25-299): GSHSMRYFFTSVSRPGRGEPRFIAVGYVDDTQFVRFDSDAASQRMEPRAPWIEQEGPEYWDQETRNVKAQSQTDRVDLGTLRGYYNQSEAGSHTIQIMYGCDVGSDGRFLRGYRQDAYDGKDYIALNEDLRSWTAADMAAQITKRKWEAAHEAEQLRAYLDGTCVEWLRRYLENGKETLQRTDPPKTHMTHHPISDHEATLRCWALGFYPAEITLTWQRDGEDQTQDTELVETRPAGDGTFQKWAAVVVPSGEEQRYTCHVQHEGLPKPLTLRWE
Sequence of HLA-A3 (P61769 21-119, further chain): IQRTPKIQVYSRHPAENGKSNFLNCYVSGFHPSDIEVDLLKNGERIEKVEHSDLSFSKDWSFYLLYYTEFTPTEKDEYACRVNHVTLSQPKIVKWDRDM
Sequence of HLA-B7 (P61769 21-119): as the sequence (P61769 21-119, further chain) above
Sequence of HLA-B7 (P01889 25-299): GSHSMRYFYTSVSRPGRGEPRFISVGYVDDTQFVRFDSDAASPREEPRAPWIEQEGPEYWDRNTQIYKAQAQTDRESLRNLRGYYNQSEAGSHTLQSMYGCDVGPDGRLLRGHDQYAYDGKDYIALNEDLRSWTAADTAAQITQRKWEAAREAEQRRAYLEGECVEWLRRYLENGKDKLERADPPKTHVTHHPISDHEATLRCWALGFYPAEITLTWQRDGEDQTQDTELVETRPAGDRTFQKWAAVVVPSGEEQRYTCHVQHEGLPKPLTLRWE

With GYIPLVGAP the “REVEAL binding score, HLA-type A29” value [1] was 29.74%, the “REVEAL binding score, HLA-type B14” value [2] was 0.47% and the “REVEAL binding score, HLA-type A1” value [3] was 15.62%. The “REVEAL binding score, HLA-type B35” value [4] was 10.35%, the “REVEAL binding score, HLA-type B15” value [5] was 11.02% and the “REVEAL binding score, HLA-type B40” value [6] was 72.32%. The “REVEAL binding score, HLA-type A24” value [7] was 0.80%, the “REVEAL binding score, HLA-type B8” value [8] was 15.94% and the “REVEAL binding score, HLA-type A3” value [9] was 3.46%. The “REVEAL binding score, HLA-type B7” value [10] was 1.37%, the “REVEAL binding score, HLA-type A2” value [11] was 7.28% and the “REVEAL binding score, HLA-type A11” value [12] was 3.84%. For the same sequence, the “REVEAL binding score, HLA-type B27” value [13] was 1.76%.

With GYLPAVGAP the “REVEAL binding score, HLA-type A29” value [1] was 26.03%, the “REVEAL binding score, HLA-type B14” value [2] was 0.11% and the “REVEAL binding score, HLA-type A1” value [3] was 12.04%. The “REVEAL binding score, HLA-type B35” value [4] was 1.84%, the “REVEAL binding score, HLA-type B15” value [5] was 10.50% and the “REVEAL binding score, HLA-type B40” value [6] was 27.82%. For the same sequence, the “REVEAL binding score, HLA-type A24” value [7] was 0.35%, the “REVEAL binding score, HLA-type B8” value [8] was 17.38% and the “REVEAL binding score, HLA-type A3” value [9] was 2.90%. The “REVEAL binding score, HLA-type B7” value [10] was 3.10%, the “REVEAL binding score, HLA-type A2” value [11] was 5.87% and the “REVEAL binding score, HLA-type A11” value [12] was 4.25%. The “REVEAL binding score, HLA-type B27” value [13] was 0.73%.

In the case of IGGNYLIPR, the “REVEAL binding score, HLA-type A29” value [1] is reported as 14.85%, the “REVEAL binding score, HLA-type B14” value [2] is reported as 0.32% and the “REVEAL binding score, HLA-type A1” value [3] is reported as 17.90%. For the same sequence, the “REVEAL binding score, HLA-type B35” value [4] was 2.54%, the “REVEAL binding score, HLA-type B15” value [5] was 15.02% and the “REVEAL binding score, HLA-type B40” value [6] was 25.44%. For the same sequence, the “REVEAL binding score, HLA-type A24” value [7] was 0.89%, the “REVEAL binding score, HLA-type B8” value [8] was 14.23% and the “REVEAL binding score, HLA-type A3” value [9] was 2.88%. For the same sequence, the “REVEAL binding score, HLA-type B7” value [10] was 20.49%, the “REVEAL binding score, HLA-type A2” value [11] was 7.04% and the “REVEAL binding score, HLA-type A11” value [12] was 3.57%. The “REVEAL binding score, HLA-type B27” value [13] was 0.82%.

For IIGGNYLIP, the “REVEAL binding score, HLA-type A29” value [1] was 13.88%, the “REVEAL binding score, HLA-type B14” value [2] was 1.17% and the “REVEAL binding score, HLA-type A1” value [3] was 21.14%. The “REVEAL binding score, HLA-type B35” value [4] was 5.35%, the “REVEAL binding score, HLA-type B15” value [5] was 19.93% and the “REVEAL binding score, HLA-type B40” value [6] was 65.43%. The “REVEAL binding score, HLA-type A24” value [7] was 10.95%, the “REVEAL binding score, HLA-type B8” value [8] was 12.18% and the “REVEAL binding score, HLA-type A3” value [9] was 3.88%. For the same sequence, the “REVEAL binding score, HLA-type B7” value [10] was 15.47%, the “REVEAL binding score, HLA-type A2” value [11] was 8.27% and the “REVEAL binding score, HLA-type A11” value [12] was 2.81%. The “REVEAL binding score, HLA-type B27” value [13] was 0.97%.

With IPLVGAPLG the “REVEAL binding score, HLA-type A29” value [1] was 26.79%, the “REVEAL binding score, HLA-type B14” value [2] was 0.03% and the “REVEAL binding score, HLA-type A1” value [3] was 13.28%. The “REVEAL binding score, HLA-type B35” value [4] was 30.74%, the “REVEAL binding score, HLA-type B15” value [5] was 10.01% and the “REVEAL binding score, HLA-type B40” value [6] was 41.10%. For the same sequence, the “REVEAL binding score, HLA-type A24” value [7] was 0.60%, the “REVEAL binding score, HLA-type B8” value [8] was 17.87% and the “REVEAL binding score, HLA-type A3” value [9] was 2.59%. The “REVEAL binding score, HLA-type B7” value [10] was 2.34%, the “REVEAL binding score, HLA-type A2” value [11] was 4.32% and the “REVEAL binding score, HLA-type A11” value [12] was 2.05%. For the same sequence, the “REVEAL binding score, HLA-type B27” value [13] was 0.35%.

For IRNLGRVIE, the “REVEAL binding score, HLA-type A29” value [1] was 11.06%, the “REVEAL binding score, HLA-type B14” value [2] was 30.77% and the “REVEAL binding score, HLA-type A1” value [3] was 14.22%. For the same sequence, the “REVEAL binding score, HLA-type B35” value [4] was 1.98%, the “REVEAL binding score, HLA-type B15” value [5] was 4.06% and the “REVEAL binding score, HLA-type B40” value [6] was 21.40%. For the same sequence, the “REVEAL binding score, HLA-type A24” value [7] was 0.61%, the “REVEAL binding score, HLA-type B8” value [8] was 9.10% and the “REVEAL binding score, HLA-type A3” value [9] was 3.89%. For the same sequence, the “REVEAL binding score, HLA-type B7” value [10] was 1.43%, the “REVEAL binding score, HLA-type A2” value [11] was 8.77% and the “REVEAL binding score, HLA-type A11” value [12] was 5.31%. The “REVEAL binding score, HLA-type B27” value [13] was 1.84%.

IRVIAHGLR was tested, and the “REVEAL binding score, HLA-type A29” value [1] was 23.19%, the “REVEAL binding score, HLA-type B14” value [2] was 0.10% and the “REVEAL binding score, HLA-type A1” value [3] was 15.82%. For the same sequence, the “REVEAL binding score, HLA-type B35” value [4] was 0.66%, the “REVEAL binding score, HLA-type B15” value [5] was 8.99% and the “REVEAL binding score, HLA-type B40” value [6] was 26.45%. The “REVEAL binding score, HLA-type A24” value [7] was 0.50%, the “REVEAL binding score, HLA-type B8” value [8] was 13.34% and the “REVEAL binding score, HLA-type A3” value [9] was 3.58%. The “REVEAL binding score, HLA-type B7” value [10] was 3.50%, the “REVEAL binding score, HLA-type A2” value [11] was 4.83% and the “REVEAL binding score, HLA-type A11” value [12] was 2.50%. For the same sequence, the “REVEAL binding score, HLA-type B27” value [13] was 9.37%.
